Data from patent publication US20150330992A1, “RAPID DISCOVERY AND SCREENING OF ENZYME ACTIVITY USING MASS SPECTROMETRY” (THE REGENTS OF THE UNIVERSITY OF CALIFORNIA, priority 2012, published 2015).
Where two headings read alike, the source gives them in different places. Each block holds one compound with its values, some of them ahead of it.

Columns and labels:
[1] = molecular target: T1, chloramphenicol acetyltransferase (CAT) (Escherichia coli, UniProt P62577); assay: PECAN detection of CAT activity in whole E. coli cell culture; format: cell-based; parameters: expressed in transfected cells; host or cells: E. coli DH1 harboring pBbB8k-CAT, arabinose-induced, sonicated lysate; conditions: whole cell culture without exogenous cofactors, 2 mM probe, 1 h
T1 sequence (P62577 whole entry, looked up): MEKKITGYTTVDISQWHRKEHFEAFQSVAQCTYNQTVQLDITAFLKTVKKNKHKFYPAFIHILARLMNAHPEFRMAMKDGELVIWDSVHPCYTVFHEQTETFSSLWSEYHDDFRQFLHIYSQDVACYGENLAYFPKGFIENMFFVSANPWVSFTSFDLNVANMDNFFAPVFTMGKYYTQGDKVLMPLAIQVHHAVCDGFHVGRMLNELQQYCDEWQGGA
Method: For the detection of CAT activity in E. coli cell culture, to 5 mL, of E. coli culture in LB medium expressing either GFP or CAT was added the ChlorHexy PECAN probe to a final concentration of 2 mM. The bacterial cultures were shaken at 37° C. for 1 h and quenched with an equal volume of methanol. 5 uL of this mixture was then mixed with 5 ul, of click reaction solution (recipe described above) and left to react overnight. NIMS analysis was performed as described above.
In FIG. 25, the 42-mass unit shift relative to the GFP control was the mass of a single acetyl group attached to the probe.

[2] = molecular target: T1, chloramphenicol acetyltransferase (CAT); assay: PECAN detection of CAT activity in E. coli cell lysate; format: biochemical; parameters: expressed in transfected cells; host or cells: E. coli DH1 harboring pBbB8k-CAT, arabinose-induced, sonicated lysate; conditions: cell lysate with added acetyl-CoA, 2 mM probe
Method: Acetyl-CoA was added to a final concentration of 5 mM and the ChlorHexy PECAN probe to a final concentration of 2 mM. […] 5 uL, of the mixture was then mixed with 5 uL of click reaction solution [50 mM Tris(3-hydroxypropyltriazolylmethyl)amine (THPTA), 50 mM sodium ascorbate, 10 mM copper sulfate and 0.5 mM PECAN tag Nz-N3 (structure shown below) in 50:50 water:methanol] and left to react overnight. […] The spotted area was washed with 2×1 μL deionized water and NIMS spectra were obtained.

[3] = molecular target: T1, chloramphenicol acetyltransferase (CAT); conditions: 0.5 mM probe, 2 mM acetyl-CoA, 5 minutes; versus control lysate
Method: Enzymatic activity assay—Overnight cultures of E. coli DH1 harboring either pBbB8k-GFP or pBbB8k-CAT were diluted 1:10 in LB with 50 μg mL^−1 kanamycin, and grown for 1 hour at 37° C., after which they were induced with 0.2% (w/v) arabinose. After 2 hours of growth, 0.5 mL of the culture was centrifuged at ˜12000×g for 1 minute, the pellet was resuspended in 0.25 mL aqueous 50 mM sodium phosphate (pH 7.5) and sonicated for 30 seconds. Acetyl-CoA was added to a final concentration of 2 mM and 11 to a final concentration of 0.5 mM. The mixture was mixed and incubated at room temperature for 5 minutes, and subsequently quenched with an equal volume of methanol. A 0.3 μL droplet of the mixture was spotted onto a NIMS chip, and the excess liquid removed 5 seconds later by touching it with a Kimwipe (Kimberly-Clark). The spotted area was washed twice with 1 μL deionized water. The NIMS chip was taped to a modified standard MALDI plate, which was then loaded into an Applied Biosystems 4800 MALDI time of flight (TOF)//TOF mass spectrometer. […] Spectra were acquired in manual mode and positive polarity.

[4] = system: Alicycyclobacillus acidocaldarius β-glucosidase; assay: Steady-state kinetic analysis of β-glucosidase with varied cellobiose by oxime-NIMS; format: biochemical; conditions: 95% confidence level, r^2=0.997
Method: A velocity versus substrate concentration analysis was used to determine the kinetic parameters for β-glucosidase (Aa-βG) from the thermoacidophilic bacterium Alicycyclobacillus acidocaldarius 22 using pure cellobiose as substrate. The experimental data were analyzed using the NonlinearModelFit routine of Mathematic v.8 (Wolfram Research) and v=kcat [S]/(KM+[S]) (kcat, KM, and [S] have their usual definitions).
Glucose formed at different time points from the reaction of Alicycyclobacillus acidocaldarius β-glucosidase with varied cellobiose concentration was quantified and used for steady-state kinetic analysis. The data were analysed using the NonlinearModelFit routine of Mathematic v.8 and v=kcat [S]/(KM+[S]), where kcat, KM, and [S] have their usual definitions.

[5] = system: Alicycyclobacillus acidocaldarius β-glucosidase; conditions: lacking error analysis; read-out: KM, previously reported; cited from earlier work
cytochrome P450BM3 = molecular target: T2, cytochrome P450BM3 (Priestia megaterium, UniProt P14779); assay: Whole-cell PECAN detection of cytochrome P450BM3 activity; format: cell-based, E. coli; conditions: 2 mM probe, 30° C., 16 h; versus GFP control
T2 construct: expressed in transfected cells; host or cells: E. coli liquid culture in terrific broth with d-aminolevulinic acid
T2 sequence (P14779 whole entry): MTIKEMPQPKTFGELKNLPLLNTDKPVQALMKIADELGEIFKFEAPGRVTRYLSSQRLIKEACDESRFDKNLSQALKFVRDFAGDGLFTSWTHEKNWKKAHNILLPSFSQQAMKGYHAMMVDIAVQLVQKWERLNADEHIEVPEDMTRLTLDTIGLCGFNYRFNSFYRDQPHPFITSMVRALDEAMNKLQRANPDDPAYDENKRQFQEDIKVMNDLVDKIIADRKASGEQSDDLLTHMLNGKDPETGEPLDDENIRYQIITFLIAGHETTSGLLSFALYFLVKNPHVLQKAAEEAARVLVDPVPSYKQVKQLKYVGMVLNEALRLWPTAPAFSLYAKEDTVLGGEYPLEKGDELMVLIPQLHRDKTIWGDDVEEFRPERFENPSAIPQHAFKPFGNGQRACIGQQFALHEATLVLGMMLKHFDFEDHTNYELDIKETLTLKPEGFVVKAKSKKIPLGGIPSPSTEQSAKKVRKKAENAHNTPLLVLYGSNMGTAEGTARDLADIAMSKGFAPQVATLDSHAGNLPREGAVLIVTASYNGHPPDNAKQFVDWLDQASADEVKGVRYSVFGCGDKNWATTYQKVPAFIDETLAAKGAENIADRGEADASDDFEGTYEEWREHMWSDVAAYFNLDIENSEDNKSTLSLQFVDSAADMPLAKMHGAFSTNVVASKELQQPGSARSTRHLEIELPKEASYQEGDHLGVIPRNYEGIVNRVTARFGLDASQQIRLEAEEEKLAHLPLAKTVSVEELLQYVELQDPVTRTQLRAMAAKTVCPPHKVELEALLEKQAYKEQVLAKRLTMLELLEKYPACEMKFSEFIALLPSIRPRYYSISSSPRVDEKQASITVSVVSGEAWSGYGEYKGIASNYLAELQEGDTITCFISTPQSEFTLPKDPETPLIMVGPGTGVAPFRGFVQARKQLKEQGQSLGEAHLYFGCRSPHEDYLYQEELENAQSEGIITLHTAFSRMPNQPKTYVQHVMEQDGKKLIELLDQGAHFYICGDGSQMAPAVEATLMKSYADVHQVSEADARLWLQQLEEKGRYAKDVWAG
Method: The CAEE PECAN probe was used to detect cytochrome P450BM3 activity in whole E. coli cell culture expressing cytochrome P450BM3 using NIMS technology. To 5 mL of E. coli liquid culture in teriffic broth supplemented with 0.5 mM d-aminolevulinic acid, expressing either GFP or cytochrome P450BM3, was added the CAEE PECAN probe to a final concentration of 2 mM and DMSO to a final concentration of 2%. The bacterial cultures were shaken in baffled borosilicate culture tubes at 30° C. for 16 h and quenched with an equal volume of methanol. 5 uL, of this mixture was then mixed with 5 uL, of click reaction solution [50 mM Tris(3-hydroxypropyltriazolylinethyl)amine (THPTA), 50 mM sodium ascorbate, 10 mM copper sulfate and 0.5 mM PECAN tag Nz-NPrg (structure shown below) in 50:50 water:methanol] and left to react overnight. NIMS analysis was performed as described above.

Compound: C#CCCCC(=O)N[C@H](CO)[C@H](O)c1ccc([N+](=O)[O-])cc1 [ChlorHexy, chloramphenicol 5-hexynamide]
CAT activity detected with probe [1]: CAT activity was detected | CAT activity detected with probe [2]: CAT activity was detected

Compound: (1R,2R)-N-Nz-1-(4-nitrophenyl)propane-1,3-diol [Compound 11]
conversion of probe by CAT (NIMS mass shift) [3]: the peak shifts by 42 mass units, as expected from monoacetylation

Km [4]: 12.1 ± 4.6 mM | kcat [4]: 1430 ± 850 s⁻¹
Compound: O=C[C@H](O)[C@@H](O)[C@H](O[C@@H]1O[C@H](CO)[C@@H](O)[C@H](O)[C@H]1O)[C@H](O)CO [cellobiose]
Km [5]: ~10 mM

Compound: [N-]=[N+]=NCCOC(=O)C1=CCCCC1 [CAEE, cyclohexenecarboxylate azidoethyl ester]
conversion of probe by cytochrome P450BM3 (NIMS mass shift) (cytochrome P450BM3): 16-mass unit shift relative to the GFP control
